In article PMC12867150, “A fungi-derived cyclic peptide enhances Th9-mediated antitumor immunity by targeting ZAP70 and SREBP1” (The Journal of Clinical Investigation, 2025):

How the values were obtained:
B16-OVA melanoma = test: Adoptive transfer of OT-II Th9 cells, B16-OVA tumor growth in β2m-KO mice (Figure 2H); assay type: in vivo; details: result in words
Text: (A) Schematic of the therapeutic model. C57BL/6 mice were subcutaneously inoculated with B16-OVA melanoma cells (5 × 10^5) and preconditioned with cyclophosphamide (CTX) on day 4. […] (B–G) Flow-cytometric analysis of transferred CD45.1^+ OT-II Th9 cells (B and C) and endogenous CD4^+ (D and E) and CD8^+ T cells (F and G) in spleens and tumors, showing frequencies and absolute numbers (n = 4 mice per group). (H) Tumor growth curves in B16-OVA–bearing C57BL/6 or β2-microglobulin–deficient (β2m-KO) mice following transfer of control or EpA-treated OT-II Th9 cells (n = 4 mice per group). (I) C57BL/6 mice bearing B16-OVA tumors were treated with control or EpA-induced OT-II Th9 cells (2 × 10^6, i.v., day 5), followed by anti–PD-1 antibody (200 μg, i.p.) on day 7, and (100 μg, i.p.) on day 10 and 12. Tumor growth is shown with individual trajectories (n = 6 mice per group). Statistical analysis was performed using 2-tailed unpaired Student’s t test ([…], B–G) or 1-way ANOVA with Tukey’s post hoc test (H and I). All data are presented as the mean ± SEM. *P < 0.05, **P < 0.01, ***P < 0.001. Schematic in A created using BioRender (https://Biorender.com).
To directly assess the requirement for endogenous CD8^+ T cells, we utilized β2-microglobulin–deficient (β2m-KO) mice, which lack functional MHC class I and are therefore devoid of CD8^+ T cells ([32]). […]

[1] = system: mitochondria of human Th9 CAR T cells; test: MitoTracker of human Th9 CAR T cells (S9G); assay type: cell-based; details: for mitochondrial mass using Mito Tracker in human Th9 CAR-T cells: flow cytometry, Supplemental Figure 9G
Description: Mitochondrial mass and membrane potential were assessed using MitoTracker™ Deep Red FM (Thermo Fisher Scientific, catalog M22426) and TMRM (tetramethylrhodamine methyl ester; Macklin, catalog T868125), respectively, following the manufacturers’ protocols. Cells were incubated with the respective dyes, washed, and subjected to flow cytometry or fluorescence microscopy analysis. For ultrastructural assessment, mitochondrial number and diameter were quantified from high-resolution transmission electron microscopy (TEM) images using ImageJ software. […]
(C) Flow-cytometric analysis of infection efficiency in Th9 cells transduced with a
CD19-directed CAR lentivirus. […]
(G) Flow-cytometric analysis of mitochondrial mass using Mito Tracker in human
Th9 CAR-T c e l l s (n = 3). […]
(H) and quantification (I) (n = 5 mice per group). Statistical analysis was performed
using one-way ANOVA with Tukey’s post hoc test (A and B), or two-tailed unpaired
Student’s t-test (E–G, and I). Repeated data are presented as mean ± SEM. *p < 0.05,
(also on this page, place not known: TP cells ANOV A 30IL-9+ cells (%) Fato Fato Fato Fato A SSC GzmB CtrlEpA MFIofMitoTracker (×102) GF NormalizedATPlevel CtrlEpA 4MFI of Mito Tracker (×105) CtrlEpA0 GzmB+ cells (%) CD4 10 20 IL-9+ cells (%) Day60 10 20 30 Ctrl)

anteiso-C15 Leu7 surfactin [EpA]
enhanced antitumor efficacy in β2m-KO hosts (B16-OVA melanoma): completely abolished
mitochondrial mass using Mito Tracker in human Th9 CAR-T cells ([1]; replicate 1): 3352
mitochondrial mass using Mito Tracker in human Th9 CAR-T cells ([1]; replicate 2): 3381
mitochondrial mass using Mito Tracker in human Th9 CAR-T cells ([1]; replicate 3): 3457
mitochondrial potential, Th9 CAR T ([1]; result in words): elevated
